What was measured:
ABUTH [1] = assay: Pre-emergence herbicidal action against ABUTH; format: in vivo, Abutilon theophrasti; conditions: for pest or weed control at 80 g/ha / pest or weed control at 20 g/ha: Abutilon theophrasti, 504 h; for pest or weed control at 20 g/ha: read-out: Pre-emergence action against ABUTH (herbicidal activity in percent)
Summary of the method: (§1)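 Sandy loam pots, seeds covered with soil, then surface-treated with WP or EC formulations at 600–800 l/ha water plus 0.2% wetting agent. Greenhouse, 3 weeks. Percent damage vs untreated controls.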

ALOMY [2] = assay: Pre-emergence herbicidal action against ALOMY; format: in vivo, Alopecurus myosuroides; conditions: pre-emergence; for pest or weed control at 80 g/ha / pest or weed control at 20 g/ha: Alopecurus myosuroides, 504 h; for pest or weed control at 20 g/ha: scored visually after 3 weeks, 100% = plants have died, 0% = like control plants
Summary of the method: as §1

AMARE [3] = assay: Pre-emergence herbicidal action against AMARE; format: in vivo, Amaranthus retroflexus; conditions: for pest or weed control at 20 g/ha / pest or weed control at 80 g/ha: Amaranthus retroflexus, 504 h
Summary of the method: as §1

AVEFA = assay: Pre-emergence herbicidal action against AVEFA; format: in vivo, Avena fatua; conditions: 80 g/ha, pre-emergence; for pest or weed control at 80 g/ha: Avena fatua, 504 h
Summary of the method: as §1

ECHCG [4] = assay: Pre-emergence herbicidal action against ECHCG; format: in vivo, Echinochloa crus-galli
Summary of the method: as §1

MATIN [5] = assay: Pre-emergence herbicidal action against MATIN; format: in vivo, Matricaria inodora; conditions: for pest or weed control at 20 g/ha / pest or weed control at 80 g/ha: Tripleurospermum inodorum, 504 h
Summary of the method: as §1

PHBPU [6] = assay: Pre-emergence herbicidal action against PHBPU; format: in vivo, Pharbitis purpurea; conditions: dosage 80 g/ha; for pest or weed control at 80 g/ha: Ipomoea purpurea, 504 h
Summary of the method: as §1

POLCO = assay: Pre-emergence herbicidal action against POLCO; format: in vivo, Polygonum convolvulus; conditions: dosage 80 g/ha; for pest or weed control at 80 g/ha: Fallopia convolvulus, 504 h
Summary of the method: as §1

SETVI [7] = assay: Pre-emergence herbicidal action against SETVI; format: in vivo, Setaria viridis
Summary of the method: as §1

VERPE [8] = assay: Pre-emergence herbicidal action against VERPE; format: in vivo, Veronica persica; conditions: for pest or weed control at 80 g/ha: Veronica persica, 504 h
Summary of the method: as §1

VIOTR [9] = assay: Pre-emergence herbicidal action against VIOTR; format: in vivo, Viola tricolor; conditions: for pest or weed control at 20 g/ha / pest or weed control at 80 g/ha: Viola tricolor, 504 h
Summary of the method: as §1

DIGSA [10] = assay: Pre-emergence herbicidal action against DIGSA; format: in vivo, Digitaria sanguinalis
Summary of the method: as §1

ABUTH [11] = assay: Post-emergence herbicidal action against ABUTH; format: in vivo, Abutilon theophrasti; conditions: visual assessment about 3 weeks after treatment vs untreated controls
Summary of the method: (§2)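 Visual % rating (0% = as untreated, 100% = dead) ~3 wk after spraying one-leaf-stage plants grown in sandy loam; WP/EC in water at 600–800 l/ha, 0.2% wetting agent.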

ALOMY [12] = assay: Post-emergence herbicidal action against ALOMY; format: in vivo, Alopecurus myosuroides; conditions: visual assessment about 3 weeks after treatment vs untreated controls
Summary of the method: as §2

AMARE [13] = assay: Post-emergence herbicidal action against AMARE; format: in vivo, Amaranthus retroflexus; conditions: 20 g/ha, visual assessment about 3 weeks after treatment, 100% = plants have died, 0% = like control plants; for pest or weed control at 20 g/ha: Amaranthus retroflexus, 504 h
Summary of the method: as §2

ECHCG [14] = assay: Post-emergence herbicidal action against ECHCG; format: in vivo, Echinochloa crus-galli
Summary of the method: as §2

MATIN [15] = assay: Post-emergence herbicidal action against MATIN; format: in vivo, Matricaria inodora
Summary of the method: as §2

PHBPU [16] = assay: Post-emergence herbicidal action against PHBPU; format: in vivo, Pharbitis purpurea; conditions: dosage 20 g/ha; for pest or weed control at 20 g/ha: Ipomoea purpurea, 504 h
Summary of the method: as §2

VERPE [17] = assay: Post-emergence herbicidal action against VERPE; format: in vivo, Veronica persica
Summary of the method: as §2

DIGSA [18] = assay: Post-emergence herbicidal action against DIGSA; format: in vivo, Digitaria sanguinalis
Summary of the method: as §2

SETVI [19] = assay: Post-emergence herbicidal action against SETVI; format: in vivo, Setaria viridis; conditions: Setaria viridis, 504 h; for pest or weed control at 20 g/ha: dosage 20 g/ha
Summary of the method: as §2

VIOTR [20] = assay: Post-emergence herbicidal action against VIOTR; format: in vivo, Viola tricolor; conditions: Viola tricolor, 504 h
Summary of the method: as §2

[21] = 80 g/ha, scored visually after 3 weeks vs untreated controls (100% = plants have died, 0% = like control plants)
[22] = dosage 20 g/ha, scored visually after 3 weeks vs untreated controls, 100% = plants have died, 0% = like control plants
[23] = 20 g/ha, scored visually after 3 weeks vs untreated controls, 100% = plants have died, 0% = like control plants
[24] = 80 g/ha, scored visually after 3 weeks vs untreated controls, 100% = plants have died, 0% = like control plants
[25] = Echinochloa crus-galli, 504 h, 80 g/ha
[26] = Setaria viridis, 504 h, dosage 80 g/ha
[27] = Abutilon theophrasti, 504 h, dosage 20 g/ha
[28] = Alopecurus myosuroides, 504 h, dosage 20 g/ha
[29] = Tripleurospermum inodorum, 504 h, dosage 20 g/ha
[30] = Veronica persica, 504 h, 20 g/ha

Compound: CC(NC(=O)c1c(C(F)F)ccc(C(=O)Nc2nnnn2C)c1Br)C1CC1 (stereo not drawn) [Example 1-340]
- Pre-emergence action against ABUTH (herbicidal activity) (ABUTH [1]; [21]): 100%
- Pre-emergence action against ABUTH (herbicidal activity in percent) (ABUTH [1]; [22]): 100%
- Pre-emergence action against ALOMY (herbicidal activity) (ALOMY [2]; [21]): 90%
- Pre-emergence action against AMARE in % (AMARE [3]; [23]): 100%
- Pre-emergence action against AMARE in % (AMARE [3]; [21]): 100%
- Pre-emergence action against AVEFA in % (AVEFA): 80%
- Pre-emergence action against ECHCG in % (ECHCG [4]; 80 g/ha): 100%
- Pre-emergence action against MATIN in % (MATIN [5]; dosage 20 g/ha): 100%
- Pre-emergence action against MATIN in % (MATIN [5]; dosage 80 g/ha): 100%
- Pre-emergence action against PHBPU in % (PHBPU [6]): 90%
- Pre-emergence action against POLCO in % (POLCO): 90%
- Pre-emergence action against SETVI in % (SETVI [7]; dosage 20 g/ha): 90%
- Pre-emergence action against SETVI in % (SETVI [7]; dosage 80 g/ha): 100%
- Pre-emergence action against VERPE in % (VERPE [8]; dosage 20 g/ha): 100%
- Pre-emergence action against VERPE in % (VERPE [8]; dosage 80 g/ha): 100%
- Pre-emergence action against VIOTR in % (VIOTR [9]; dosage 20 g/ha): 100%
- Pre-emergence action against VIOTR in % (VIOTR [9]; dosage 80 g/ha): 100%
- Pre-emergence action against DIGSA in % (DIGSA [10]; dosage 20 g/ha): 100%
- Pre-emergence action against DIGSA in % (DIGSA [10]; dosage 80 g/ha): 100%
- Post-emergence action against ABUTH in % (ABUTH [11]; dosage 20 g/ha): 80%
- Post-emergence action against ALOMY in % (ALOMY [12]; dosage 20 g/ha): 80%
- Post-emergence action at 20 g/ha against AMARE in % (AMARE [13]): 90%
- Post-emergence action against ECHCG in % (ECHCG [14]; dosage 20 g/ha): 90%
- Post-emergence action against MATIN in % (MATIN [15]; dosage 20 g/ha): 80%
- Post-emergence action against PHBPU in % (PHBPU [16]): 90%
- Post-emergence action against VERPE in % (VERPE [17]; 20 g/ha): 80%
- Post-emergence action against DIGSA (DIGSA [18]; 20 g/ha): 90%

Compound: CCn1nnnc1NC(=O)c1ccc(C(F)(F)F)c(C(=O)NC)c1Br [Example 2-207]
- pest or weed control at 80 g/ha (ABUTH [1]; [21]): 100%
- pest or weed control at 20 g/ha (ABUTH [1]; [22]): 100%
- pest or weed control at 80 g/ha (ALOMY [2]; [21]): 90%
- pest or weed control at 20 g/ha (ALOMY [2]): 80%
- pest or weed control at 20 g/ha (AMARE [3]; [23]): 100%
- pest or weed control at 80 g/ha (AMARE [3]; [24]): 100%
- pest or weed control at 80 g/ha (AVEFA): 90%
- pest or weed control at 80 g/ha (ECHCG [4]; [25]): 100%
- pest or weed control at 20 g/ha (MATIN [5]; dosage 20 g/ha): 90%
- pest or weed control at 80 g/ha (MATIN [5]; dosage 80 g/ha): 100%
- pest or weed control at 80 g/ha (PHBPU [6]): 80%
- pest or weed control at 80 g/ha (POLCO): 90%
- pest or weed control at 20 g/ha (SETVI [7]; Setaria viridis, 504 h, dosage 20 g/ha): 100%
- pest or weed control at 80 g/ha (SETVI [7]; [26]): 100%
- pest or weed control at 80 g/ha (VERPE [8]; dosage 80 g/ha): 90%
- pest or weed control at 20 g/ha (VIOTR [9]; dosage 20 g/ha): 90%
- pest or weed control at 80 g/ha (VIOTR [9]; dosage 80 g/ha): 100%
- pest or weed control at 20 g/ha (DIGSA [10]; Digitaria sanguinalis, 504 h, dosage 20 g/ha): 90%
- pest or weed control at 80 g/ha (DIGSA [10]; Digitaria sanguinalis, 504 h, dosage 80 g/ha): 100%
- pest or weed control at 20 g/ha (ABUTH [11]; [27]): 90%
- pest or weed control at 20 g/ha (ALOMY [12]; [28]): 90%
- pest or weed control at 20 g/ha (AMARE [13]): 100%
- pest or weed control at 5 g/ha (MATIN [15]; Tripleurospermum inodorum, 504 h, dosage 5 g/ha): 80%
- pest or weed control at 20 g/ha (MATIN [15]; [29]): 90%
- pest or weed control at 20 g/ha (PHBPU [16]): 80%
- pest or weed control at 5 g/ha (SETVI [19]; dosage 5 g/ha): 90%
- pest or weed control at 20 g/ha (SETVI [19]): 100%
- pest or weed control at 5 g/ha (VERPE [17]; Veronica persica, 504 h, 5 g/ha): 80%
- pest or weed control at 20 g/ha (VERPE [17]; [30]): 90%
- pest or weed control at 5 g/ha (VIOTR [20]): 100%
- pest or weed control at 20 g/ha (VIOTR [20]): 100%
- pest or weed control at 5 g/ha (DIGSA [18]; Digitaria sanguinalis, 504 h, 5 g/ha): 80%
- pest or weed control at 20 g/ha (DIGSA [18]; Digitaria sanguinalis, 504 h, 20 g/ha): 100%

Compound: CCCNC(=O)c1c(C(F)F)ccc(C(=O)Nc2nnnn2CC)c1C [Example 2-344]
- pest or weed control at 80 g/ha (ABUTH [1]; [21]): 100%
- pest or weed control at 20 g/ha (ABUTH [1]; [22]): 100%
- pest or weed control at 80 g/ha (ALOMY [2]; [21]): 100%
- pest or weed control at 20 g/ha (ALOMY [2]): 80%
- pest or weed control at 20 g/ha (AMARE [3]; [23]): 100%
- pest or weed control at 80 g/ha (AMARE [3]; [24]): 100%
- pest or weed control at 80 g/ha (AVEFA): 80%
- pest or weed control at 20 g/ha (ECHCG [4]; Echinochloa crus-galli, 504 h, 20 g/ha): 90%
- pest or weed control at 80 g/ha (ECHCG [4]; [25]): 100%
- pest or weed control at 20 g/ha (MATIN [5]; dosage 20 g/ha): 100%
- pest or weed control at 80 g/ha (MATIN [5]; dosage 80 g/ha): 100%
- pest or weed control at 80 g/ha (PHBPU [6]): 90%
- pest or weed control at 80 g/ha (POLCO): 90%
- pest or weed control at 80 g/ha (SETVI [7]; [26]): 80%
- pest or weed control at 80 g/ha (VERPE [8]; dosage 80 g/ha): 80%
- pest or weed control at 20 g/ha (VIOTR [9]; dosage 20 g/ha): 80%
- pest or weed control at 80 g/ha (VIOTR [9]; dosage 80 g/ha): 100%
- pest or weed control at 5 g/ha (ABUTH [11]; Abutilon theophrasti, 504 h, dosage 5 g/ha): 90%
- pest or weed control at 20 g/ha (ABUTH [11]; [27]): 90%
- pest or weed control at 5 g/ha (ALOMY [12]; Alopecurus myosuroides, 504 h, dosage 5 g/ha): 80%
- pest or weed control at 20 g/ha (ALOMY [12]; [28]): 90%
- pest or weed control at 20 g/ha (AMARE [13]): 100%
- pest or weed control at 5 g/ha (ECHCG [14]; Echinochloa crus-galli, 504 h, dosage 5 g/ha): 80%
- pest or weed control at 20 g/ha (ECHCG [14]; Echinochloa crus-galli, 504 h, dosage 20 g/ha): 90%
- pest or weed control at 20 g/ha (MATIN [15]; [29]): 80%
- pest or weed control at 20 g/ha (PHBPU [16]): 80%
- pest or weed control at 20 g/ha (SETVI [19]): 80%
- pest or weed control at 20 g/ha (VERPE [17]; [30]): 80%
- pest or weed control at 5 g/ha (VIOTR [20]): 90%
- pest or weed control at 20 g/ha (VIOTR [20]): 100%

Source: patent publication US12655116B2, “Substituted isophthalic acid diamides” (Bayer Aktiengesellschaft, priority 2020, dated 2026)
